Measured values reported in US6878381B2, “Resorcinol composition” (Pfizer, Inc, priority 1999, dated 2005).

Experiments:
[1] = tested on: guinea pig skin pigmentation; assay: In vivo study: skin depigmentation in black or dark brown guinea pigs; settings: 5% solution in ethanol:propylene glycol 70:30, topical, twice daily, 5 days per week for 4-8 weeks
Text: Black or dark brown guinea pigs with homogeneous skin color can be used in this study. A solution of the test compound (5% in ethanol:propylene glycol, 70:30) and the vehicle control are applied to the animals twice daily, 5 days per week for 4-8 weeks.

human tyrosinase = molecular target: T1, human tyrosinase (Homo sapiens, UniProt P14679); assay: Tyrosinase (DOPA oxidase) assay using cell lysate; type: biochemical; settings: SKMEL 188 human melanoma cell lysate; L-DOPA 100 μg/ml; 8 hr incubation; read at 405 nm
T1 construct: endogenous in cells; host or cells: SKMEL 188 human melanoma cell line (lysate)
T1 sequence (P14679 19-529): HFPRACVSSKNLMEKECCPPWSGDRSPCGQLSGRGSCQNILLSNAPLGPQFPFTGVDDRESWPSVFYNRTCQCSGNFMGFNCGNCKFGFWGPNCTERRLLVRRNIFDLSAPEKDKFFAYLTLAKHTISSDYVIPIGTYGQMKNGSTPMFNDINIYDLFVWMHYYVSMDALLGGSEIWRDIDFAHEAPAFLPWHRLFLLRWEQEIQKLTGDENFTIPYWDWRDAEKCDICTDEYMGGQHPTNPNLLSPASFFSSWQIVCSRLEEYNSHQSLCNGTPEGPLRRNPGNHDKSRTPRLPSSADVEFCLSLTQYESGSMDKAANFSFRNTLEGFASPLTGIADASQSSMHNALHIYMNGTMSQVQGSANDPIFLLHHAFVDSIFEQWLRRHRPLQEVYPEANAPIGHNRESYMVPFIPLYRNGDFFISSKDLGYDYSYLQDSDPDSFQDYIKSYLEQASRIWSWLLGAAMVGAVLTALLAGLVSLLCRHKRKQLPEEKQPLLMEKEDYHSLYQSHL
Method: 1. Tyrosinase (DOPA Oxidase) Assay Using Cell Lysate:
Human melanoma cell line, SKMEL 188 (licensed from Memorial Sloan-Kettering), is used in the cell lysate assay and the screen. In the assay, compounds and L-dihydroxyphenylalanine (L-DOPA) (100 μg/ml) are incubated with the cell lysates containing human tyrosinase for 8 hr before the plates are read at 405 nm. Potency of the compounds in DOPA oxidase assay is correlated very well with that in tyrosine hydroxylase assay using ^3H-tyrosine as a substrate.

IC50 (human tyrosinase): 200 nM
SMILES: Oc1ccc(C2CCC(O)CC2)c(O)c1 (centres unmarked) [4-(2,4-dihydroxyphenyl)cyclohexanol]
depigmentation of skin [1]: depigmentation of skin
